assay: Octanol-water partition coefficient, log P of the compound

| SMILES | logP |
| --- | --- |
| Nc1ccccc1 [ANILINE] | 0.9 |
| CCC(C)=O [BUTANONE] | 0.29 |
| CCCCCl [BUTYL CHLORIDE] | 2.39 |
| CCCc1ccccc1 | 3.68 |
| CCC#N [PROPIONITRILE] | 0.16 |
| CC(C)(C)CO | 1.36 |
| OC1CCCCC1 [CYCLOHEXANOL] | 1.23 |

— ChEMBL document CHEMBL3272317, “Application of SCAP to drug design. 1. Prediction of octanol-water partition coefficients using solvent-dependent conformational analyses” (J Med Chem, 1976)
